Measurements taken from ChEMBL document CHEMBL4840354, “Identification of Diarylurea Inhibitors of the Cardiac-Specific Kinase TNNI3K by Designing Selectivity Against VEGFR2, p38α, and B-Raf” (J Med Chem, 2021).

Columns and labels:
[1] = species on record: Homo sapiens; assay: Selectivity index, ratio of IC50 for inhibition of p38alpha (unknown origin) to IC50 for inhibition of TNNI3K (unknown origin)
[2] = target: Vascular endothelial growth factor receptor 2 (Homo sapiens, UniProt P35968); assay: Inhibition of GST-6His tagged VEGFR2 (unknown origin) using biotin-aminohexyl-EEEEYFELVAKKKK-NH2 peptide substrate incubated for 90 mins by HTRF assay
Sequence of Vascular endothelial growth factor receptor 2 (P35968 whole entry): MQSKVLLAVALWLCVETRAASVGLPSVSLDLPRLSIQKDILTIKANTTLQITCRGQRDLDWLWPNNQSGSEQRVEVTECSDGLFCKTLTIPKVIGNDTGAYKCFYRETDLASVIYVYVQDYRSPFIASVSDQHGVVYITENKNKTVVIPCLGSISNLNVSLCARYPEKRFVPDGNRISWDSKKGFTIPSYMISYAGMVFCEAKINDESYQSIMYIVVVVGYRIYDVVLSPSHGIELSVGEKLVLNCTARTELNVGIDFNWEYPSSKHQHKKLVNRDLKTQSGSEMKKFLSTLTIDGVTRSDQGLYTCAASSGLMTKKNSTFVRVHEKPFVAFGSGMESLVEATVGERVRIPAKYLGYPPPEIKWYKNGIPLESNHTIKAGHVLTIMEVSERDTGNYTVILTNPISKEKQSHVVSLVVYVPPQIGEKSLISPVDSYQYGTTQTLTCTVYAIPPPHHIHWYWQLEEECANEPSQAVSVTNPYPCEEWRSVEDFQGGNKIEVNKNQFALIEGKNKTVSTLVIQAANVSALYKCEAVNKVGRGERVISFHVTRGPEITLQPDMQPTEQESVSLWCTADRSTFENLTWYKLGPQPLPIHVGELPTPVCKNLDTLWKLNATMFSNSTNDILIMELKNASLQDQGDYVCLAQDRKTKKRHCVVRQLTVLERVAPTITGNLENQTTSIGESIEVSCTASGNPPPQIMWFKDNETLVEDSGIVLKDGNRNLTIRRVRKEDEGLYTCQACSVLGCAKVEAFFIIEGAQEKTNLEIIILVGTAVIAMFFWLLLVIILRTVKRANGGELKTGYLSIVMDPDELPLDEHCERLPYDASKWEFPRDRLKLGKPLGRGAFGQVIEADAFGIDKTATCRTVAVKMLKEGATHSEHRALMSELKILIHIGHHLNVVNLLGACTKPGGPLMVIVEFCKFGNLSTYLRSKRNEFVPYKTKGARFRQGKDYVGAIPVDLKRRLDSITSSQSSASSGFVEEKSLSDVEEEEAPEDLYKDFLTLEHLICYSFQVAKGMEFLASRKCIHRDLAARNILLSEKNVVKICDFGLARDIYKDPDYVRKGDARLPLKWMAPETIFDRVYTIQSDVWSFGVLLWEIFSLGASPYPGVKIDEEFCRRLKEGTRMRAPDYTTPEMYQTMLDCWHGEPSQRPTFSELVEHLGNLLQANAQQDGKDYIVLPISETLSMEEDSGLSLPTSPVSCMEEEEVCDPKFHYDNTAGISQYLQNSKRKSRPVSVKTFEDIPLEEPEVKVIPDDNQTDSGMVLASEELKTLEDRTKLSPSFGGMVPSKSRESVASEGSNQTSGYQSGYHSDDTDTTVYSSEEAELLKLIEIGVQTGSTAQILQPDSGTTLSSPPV

[3] = target: Mitogen-activated protein kinase 14 (Homo sapiens, UniProt Q16539); assay: Inhibition of p38alpha (unknown origin)
Sequence of Mitogen-activated protein kinase 14 (Q16539 whole entry): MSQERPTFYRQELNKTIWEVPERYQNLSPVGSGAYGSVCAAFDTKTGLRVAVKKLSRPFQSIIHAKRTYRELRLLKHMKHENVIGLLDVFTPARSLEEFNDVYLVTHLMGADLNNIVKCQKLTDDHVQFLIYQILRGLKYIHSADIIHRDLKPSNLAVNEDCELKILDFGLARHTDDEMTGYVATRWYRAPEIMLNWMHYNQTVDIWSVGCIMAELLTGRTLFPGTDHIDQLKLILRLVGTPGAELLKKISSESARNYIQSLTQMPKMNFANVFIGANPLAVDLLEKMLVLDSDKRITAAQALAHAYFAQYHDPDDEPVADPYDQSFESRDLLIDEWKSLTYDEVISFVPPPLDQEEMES

[4] = target: T1, Serine/threonine-protein kinase TNNI3K (Homo sapiens, UniProt Q59H18); assay: Inhibition of TNNI3K (unknown origin)
T1 sequence (Q59H18 whole entry): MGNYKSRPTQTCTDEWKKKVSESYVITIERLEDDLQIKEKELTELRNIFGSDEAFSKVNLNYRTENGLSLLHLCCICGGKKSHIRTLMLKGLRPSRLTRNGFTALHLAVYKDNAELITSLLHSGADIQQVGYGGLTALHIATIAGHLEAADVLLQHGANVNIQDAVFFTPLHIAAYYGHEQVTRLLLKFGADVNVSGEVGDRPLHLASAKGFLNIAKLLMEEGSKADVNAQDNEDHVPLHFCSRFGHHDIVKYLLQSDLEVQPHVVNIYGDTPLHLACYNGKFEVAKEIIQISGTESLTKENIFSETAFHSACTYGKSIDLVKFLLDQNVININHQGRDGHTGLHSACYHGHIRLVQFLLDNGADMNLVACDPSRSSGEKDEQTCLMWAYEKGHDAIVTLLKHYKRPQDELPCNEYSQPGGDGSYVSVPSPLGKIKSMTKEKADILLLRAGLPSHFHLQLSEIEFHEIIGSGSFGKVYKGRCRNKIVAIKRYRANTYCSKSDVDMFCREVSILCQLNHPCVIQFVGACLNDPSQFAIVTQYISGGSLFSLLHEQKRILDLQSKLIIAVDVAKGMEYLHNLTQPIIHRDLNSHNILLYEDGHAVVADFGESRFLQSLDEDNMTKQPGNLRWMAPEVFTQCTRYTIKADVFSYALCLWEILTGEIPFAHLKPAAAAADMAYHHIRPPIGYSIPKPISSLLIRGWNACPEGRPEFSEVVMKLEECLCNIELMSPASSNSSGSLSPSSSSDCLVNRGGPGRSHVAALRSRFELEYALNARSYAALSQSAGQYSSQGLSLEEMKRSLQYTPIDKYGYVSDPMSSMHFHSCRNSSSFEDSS

[5] = species on record: Homo sapiens; assay: Selectivity index, ratio of IC50 for inhibition of VEGFR2 (unknown origin) to IC50 for inhibition of TNNI3K (unknown origin)
[6] = target: Serine/threonine-protein kinase B-raf (Homo sapiens, UniProt P15056); assay: Inhibition of B-Raf (unknown origin)
Sequence of Serine/threonine-protein kinase B-raf (P15056 whole entry): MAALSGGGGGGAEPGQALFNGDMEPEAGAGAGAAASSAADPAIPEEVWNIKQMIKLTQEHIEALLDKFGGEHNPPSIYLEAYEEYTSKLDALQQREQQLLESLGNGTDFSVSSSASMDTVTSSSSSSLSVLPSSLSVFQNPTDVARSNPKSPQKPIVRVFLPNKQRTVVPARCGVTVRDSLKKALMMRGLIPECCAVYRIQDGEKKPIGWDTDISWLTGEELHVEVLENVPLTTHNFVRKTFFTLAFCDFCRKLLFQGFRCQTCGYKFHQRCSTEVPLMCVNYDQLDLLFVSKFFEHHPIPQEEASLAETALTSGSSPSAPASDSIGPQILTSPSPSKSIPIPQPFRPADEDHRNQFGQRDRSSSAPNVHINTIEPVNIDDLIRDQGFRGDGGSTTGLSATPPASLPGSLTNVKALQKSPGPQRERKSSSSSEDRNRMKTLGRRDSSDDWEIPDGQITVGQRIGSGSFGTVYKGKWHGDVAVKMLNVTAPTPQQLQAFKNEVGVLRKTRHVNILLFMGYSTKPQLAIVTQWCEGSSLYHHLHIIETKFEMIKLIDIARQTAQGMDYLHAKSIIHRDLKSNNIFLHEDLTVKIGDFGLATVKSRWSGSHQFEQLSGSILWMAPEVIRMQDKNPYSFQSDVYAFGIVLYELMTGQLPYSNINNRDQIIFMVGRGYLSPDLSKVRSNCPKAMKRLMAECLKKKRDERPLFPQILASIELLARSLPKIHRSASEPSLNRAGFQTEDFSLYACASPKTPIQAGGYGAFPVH

Ratio IC50 [1]	IC50 [2]	IC50 [3]	IC50 [4]	Ratio IC50 [5]	IC50 [6]	Structure (SMILES)
13	16 nM	320 nM	25 nM	0.64	500 nM	CCNc1cc(Oc2ccc(NC(=O)Nc3cccc(C(F)(F)F)c3)cc2)ncn1
> 20	800 nM	> 25000 nM	1260 nM	0.63	> 2000 nM	CNc1cc(Oc2ccc(NC(=O)Nc3cccc(C)c3)cc2)ncn1
62	130 nM	6300 nM	100 nM	1.3	> 2000 nM	CNc1cc(Oc2ccc(NC(=O)Nc3cccc(C(F)F)c3)cc2)ncn1
4	4 nM	320 nM	79 nM	0.05		CNC(=O)c1cc(Oc2ccc(NC(=O)Nc3cccc(C(F)(F)F)c3)cc2)ccn1
0.2	13 nM	5 nM	25 nM	0.5	100 nM	CNc1cc(Oc2ccc(NC(=O)Nc3cccc(C(F)(F)F)c3)c3ccccc23)ncn1
40	0.4 nM	400 nM	10 nM	0.04	630 nM	O=C(O)Cc1cccc(Nc2cc(Oc3ccc(NC(=O)Nc4cccc(C(F)(F)F)c4)cc3)ncn2)c1
1	32 nM	50 nM	50 nM	0.64	63 nM	CNc1nccc(Oc2ccc(NC(=O)Nc3cccc(C(F)(F)F)c3)cc2)n1
10	320 nM	320 nM	32 nM	10	800 nM	C[C@H](O)CNc1cc(Oc2ccc(NC(=O)Nc3cccc(C(F)(F)F)c3)cc2)ncn1
4	1.3 nM	79 nM	20 nM	0.07	32 nM	CC(=O)Nc1cc(Oc2ccc(NC(=O)Nc3cccc(C(F)(F)F)c3)cc2)ncn1
6.3	63 nM	1000 nM	160 nM	0.4	1260 nM	Cc1cc(Oc2ccc(NC(=O)Nc3cccc(C(F)(F)F)c3)cc2)ncn1
31	2.5 nM	500 nM	16 nM	0.16	400 nM	O=C(Nc1ccc(Oc2ncnc3[nH]ccc23)cc1)Nc1cccc(C(F)(F)F)c1
160	2000 nM	5000 nM	32 nM	63	> 2000 nM	CNc1cc(Oc2cc(C)c(NC(=O)Nc3cccc(C(F)(F)F)c3)cc2C)ncn1
40	16 nM	1000 nM		0.64	1600 nM	CNc1cc(Oc2ccc(NC(=O)Nc3cccc(C(F)(F)F)c3)cc2F)ncn1
5	320 nM	250 nM	50 nM	6.4	1260 nM	CC(C)CNc1cc(Oc2ccc(NC(=O)Nc3cccc(C(F)(F)F)c3)cc2)ncn1
25	40 nM	1000 nM	40 nM	1	500 nM	CNc1cc(Oc2ccc(NC(=O)Nc3cccc(C(C)(F)F)c3)cc2)ncn1
1	3.2 nM	32 nM	32 nM	0.1	320 nM	O=C(Nc1ccc(Oc2ccnc3[nH]ccc23)cc1)Nc1cccc(C(F)(F)F)c1
16	10 nM	1600 nM	100 nM	0.1	400 nM	COc1ccc2ncnc(Oc3ccc(NC(=O)Nc4cccc(C(F)(F)F)c4)cc3)c2c1
25	50 nM	500 nM	20 nM	2.5	> 2000 nM	CNc1cc(Oc2c(F)cc(NC(=O)Nc3cccc(C(F)(F)F)c3)cc2F)ncn1
0.3	400 nM	1260 nM	4000 nM	0.1	> 2000 nM	COc1cc(Oc2ccc(NC(=O)Nc3cccc(C(F)(F)F)c3)cc2)ncn1

Ratio IC50 [1]	IC50 [2]	IC50 [3]	IC50 [4]	Ratio IC50 [5]	IC50 [6]	Structure (SMILES)
0.8	2500 nM	2000 nM	2500 nM	1	1000 nM	CN(C)c1cc(Oc2ccc(NC(=O)Nc3cccc(C(F)(F)F)c3)cc2)ncn1
8	2.5 nM	160 nM	20 nM	0.13	16 nM	CNc1cc(Oc2ccc(NC(=O)Nc3cccc(C(F)(F)F)c3)c(F)c2F)ncn1
5	3.2 nM	50 nM	10 nM	0.32	200 nM	O=C(Nc1ccc(Oc2cc(Nc3cccc(CN4CCCC4)c3)ncn2)cc1)Nc1cccc(C(F)(F)F)c1
1.6	320 nM	1260 nM	800 nM	0.4	1260 nM	O=C(Nc1ccc(Oc2ncnc3ccccc23)cc1)Nc1cccc(C(F)(F)F)c1
< 0.02	> 10000 nM	1000 nM	> 50000 nM		1260 nM	Cc1cc(Oc2ccc(NC(=O)Nc3cccc(C(F)(F)F)c3)cc2)c2ccccc2n1
8	200 nM	500 nM	63 nM	3.2	1000 nM	C[C@@H](O)CNc1cc(Oc2ccc(NC(=O)Nc3cccc(C(F)(F)F)c3)cc2)ncn1
6.3	6.3 nM	400 nM	63 nM	0.1	63 nM	CNc1cc(Oc2ccc(NC(=O)Nc3cccc(C(F)(F)F)c3)c(F)c2)ncn1
> 4	6300 nM	> 25000 nM	6300 nM	1	> 2000 nM	CNc1cc(Oc2ccc(NC(=O)Nc3ccccc3)cc2)ncn1
32	2 nM	800 nM	23 nM	0.08	63 nM	COc1cc2ncnc(Oc3ccc(NC(=O)Nc4cccc(C(F)(F)F)c4)cc3)c2cc1OC
10	50 nM	400 nM	40 nM	1.3	800 nM	CC(C)Nc1cc(Oc2ccc(NC(=O)Nc3cccc(C(F)(F)F)c3)cc2)ncn1
> 63	63 nM	630 nM	≤ 10 nM	> 6.3	160 nM	CNc1cc(Oc2ccc(NC(=O)Nc3cccc(C(F)(F)F)c3)cc2C)ncn1
63	79 nM	5000 nM	79 nM	1	1000 nM	CNc1cc(Oc2ccc(NC(=O)Nc3cccc(C(C)F)c3)cc2)ncn1 (stereo not drawn)
25	400 nM	2000 nM	79 nM	5.1	> 2000 nM	CNc1cc(Oc2c(C)cc(NC(=O)Nc3cccc(C(F)(F)F)c3)cc2Cl)ncn1
1.6	5 nM	100 nM	63 nM	0.08	200 nM	O=C(Nc1ccc(Oc2ccnc3ccccc23)cc1)Nc1cccc(C(F)(F)F)c1
4	20 nM	200 nM	50 nM	0.4	630 nM	O=C(Nc1ccc(Oc2ccncc2)cc1)Nc1cccc(C(F)(F)F)c1
63	400 nM	25000 nM	400 nM	1	> 2000 nM	CNc1cc(Oc2ccc(NC(=O)Nc3cccc(CF)c3)cc2)ncn1
80	130 nM	16000 nM	200 nM	0.65	> 2000 nM	CCc1cccc(NC(=O)Nc2ccc(Oc3cc(NC)ncn3)cc2)c1
13	19 nM	400 nM	32 nM		630 nM	CCCNc1cc(Oc2ccc(NC(=O)Nc3cccc(C(F)(F)F)c3)cc2)ncn1
